Values of other authors, collected in patent US20050244461A1, “Controlled release drug delivery systems and methods for treatment of an eye” (Allergan, Inc., priority 2004, published 2005).

Conditions: in vivo efficacy; 25 mg hydrocortisone equivalent to 1 mg dexamethasone; Goodman and Gilman

## C[C@]12CCC(=O)C=C1CC[C@@H]1[C@@H]2[C@@H](O)C[C@@]2(C)[C@H]1CC[C@]2(O)C(=O)CO [hydrocortisone]
  Potency relative to dexamethasone: approximately twentyfivefold less potent than dexamethasone
